Laboratory results as given in PMC11350787, “Antimicrobial Properties and Cytotoxicity of LL-37-Derived Synthetic Peptides to Treat Orthopedic Infections” (Antibiotics, 2024).
Peptide text beside a SMILES is read from it.

Columns and labels:
E. coli ATCC 25922 = test: microbe, parasite or virus in culture
From the text: (§1) A total of 18 bacterial strains relevant to orthopedic infections were used for microbiological tests, including 8 ATCC (American Type Culture Collection, ATCC, Manassas, VA, USA) and 10 clinical isolates (CI) from the Laboratory of Clinical Chemistry and Microbiology, IRCCS Ospedale Galeazzi–Sant’Ambrogio of Milan (Italy) strain collection. The ATCC strains were used for the first screening (MIC/MBC) of all the AMPs produced, while the clinical isolates were used for further MIC/MBC assays on selected AMPs. Among CI, S. epidermidis GOI1153754-03-14 has been already characterized and used in previous studies. All the strains were stocked at −80°C and working stocks were stored at −20 °C. At the occurrence, the bacteria were resuscitated in Brain Hearth Infusion (BHI, Millipore, Milan, Italy) broth at 37 °C for 18 h from the working stocks.
(§2) To determine the minimum inhibitory concentration (MIC) and the minimum bactericidal concentration (MBC), ISO20776-1 and Clinical and Laboratory Standards Institute guidelines were followed. A commercial synthetic LL-37 (Aurogene, Rome, Italy) was used as the control in the MIC and MBC assays. A stock solution of each AMP was prepared at 600 µg/mL to achieve a final concentration of 300 µg/mL. […] The MIC was determined according to the aforementioned standard guidelines. The MBC was determined by plating 2 µL of culture from each well of the MIC plates on a Tryptic Soy Agar (TSA, Millipore, Milan, Italy) plate and incubated for 24 h at 37 °C. The concentration at which there was no growth was recorded as MBC. Each experiment was carried out in triplicate. Representative MIC and MBC values for vancomycin and gentamicin were assessed to offer a benchmark comparison for the AMPs. Quality control was conducted with Staphylococcus aureus ATCC 29,213 and vancomycin according to EUCAST guidelines.

P. aeruginosa ATCC 27853 = test: microbe, parasite or virus in culture
From the text: as §1, §2

S. aureus ATCC 25923 = test: microbe, parasite or virus in culture
From the text: as §1, §2

S. aureus ATCC 43300 = test: microbe, parasite or virus in culture
From the text: as §1, §2

S. aureus ATCC 49230 = test: microbe, parasite or virus in culture
From the text: as §1, §2

[1] = system: S. epidermidis ATCC 14990; test: microbe, parasite or virus in culture
From the text: as §1, §2

[2] = system: S. epidermidis ATCC 35984; test: microbe, parasite or virus in culture
From the text: as §1, §2

[3] = system: S. epidermidis GOI1153754-03-14 (CI); test: microbe, parasite or virus in culture; conditions: GOI1153754-03-14 (CI, 18 h)
From the text: as §1, §2

E. coli Eco53 (CI) = conditions: Eco53 (CI, 18 h)
From the text: as §1, §2

E. coli Eco61 (CI) = conditions: Eco61 (CI, 18 h)
From the text: as §1, §2

E. coli Eco75 (CI) = conditions: Eco75 (CI, 18 h)
From the text: as §1, §2

P. aeruginosa Pae2 (CI) = conditions: Pae2 (CI, 18 h)
From the text: as §1, §2

P. aeruginosa Pae61 (CI) = conditions: Pae61 (CI, 18 h)
From the text: as §1, §2

P. aeruginosa Pae82 (CI) = conditions: Pae82 (CI, 18 h)
From the text: as §1, §2

S. aureus Sau221 (CI) = conditions: Sau221 (CI, 18 h)
From the text: as §1, §2

S. aureus Sau39 (CI) = conditions: Sau39 (CI, 18 h)
From the text: as §1, §2

S. aureus Sau89 (CI) = conditions: Sau89 (CI, 18 h)
From the text: as §1, §2

Staphylococci = conditions: 18 h
From the text: as §1, §2

red blood cells (RBC) = test: Hemolytic activity assessment; assay type: cell-based; conditions: at 18.75 µg/mL; human RBC suspension in PBS, 1 h 37 °C, absorbance 414 nm; 0.1% Triton-X100 = 100%
Experimental: The pellet containing erythrocytes was washed 3 times in PBS centrifuging at 700× g for 8 min at RT. Finally, 40 µL of pellet containing red blood cells (RBC) was diluted in 8 mL of PBS, obtaining a 0.5% v/v RBC suspension.
The 96-well V plate was incubated at 37 °C for 1 h, then centrifuged at 1000× g for 10 min, and the supernatant (60 µL) was transferred to a 96-well flat bottom microplate for the absorption analysis on a microplate reader at 414 nm. The positive control (PC, 100% hemolysis) consisted of 0.1% Triton-X100 in PBS (pH 7.4), while PBS alone served as the negative control (NC, 0% hemolysis). Each hemolysis activity assessment test was carried out in two replicates and repeated three times.
NCs and PCs were averaged, then results were normalized to the average of PC and NC according to the following formula: % Hemolysis = (Abs treated − Abs NC/Abs PC − Abs NC) × 100. The hemolytic activity was also tested on TFA to exclude any toxicity caused by the buffer.

Compound: CC[C@H](C)[C@H](NC(=O)[C@H](CCCNC(=N)N)NC(=O)[C@H](CCC(N)=O)NC(=O)[C@@H](NC(=O)[C@@H](NC(=O)[C@H](CCCNC(=N)N)NC(=O)[C@H](CCCCN)NC(=O)[C@H](Cc1ccccc1)NC(=O)CN)[C@@H](C)CC)C(C)C)C(=O)N[C@@H](CCCCN)C(=O)N[C@@H](CC(=O)O)C(=O)N[C@@H](Cc1ccccc1)C(=O)N[C@@H](CC(C)C)C(=O)N[C@@H](CCCNC(=N)N)C(=O)N[C@@H](CC(N)=O)C(=O)N[C@@H](CC(C)C)C(=O)N[C@H](C(N)=O)C(C)C [GF-17] (H-GFKRIVQRIKDFLRNLV-NH2)
- Minimum Inhibitory Concentration (MIC) (E. coli ATCC 25922; ATCC 25922, 18 h): 9.38 µg/mL
- Minimum Bactericidal Concentration (MBC) (E. coli ATCC 25922; ATCC 25922, 24 h): 300.00 µg/mL
- Minimum Inhibitory Concentration (MIC) (P. aeruginosa ATCC 27853; ATCC 27853, 18 h): 18.75 µg/mL
- Minimum Bactericidal Concentration (MBC) (P. aeruginosa ATCC 27853; ATCC 27853, 24 h): 75.00 µg/mL
- Minimum Inhibitory Concentration (MIC) (S. aureus ATCC 25923; ATCC 25923, 18 h): 2.34 µg/mL
- Minimum Bactericidal Concentration (MBC) (S. aureus ATCC 25923; ATCC 25923, 24 h): 37.50 µg/mL
- Minimum Inhibitory Concentration (MIC) (S. aureus ATCC 43300; ATCC 43300, 18 h): 4.69 µg/mL
- Minimum Bactericidal Concentration (MBC) (S. aureus ATCC 43300; ATCC 43300, 24 h): 150.00 µg/mL
- Minimum Inhibitory Concentration (MIC) (S. aureus ATCC 49230; ATCC 49230, 18 h): 4.69 µg/mL
- Minimum Bactericidal Concentration (MBC) (S. aureus ATCC 49230; ATCC 49230, 24 h): 75.00 µg/mL
- Minimum Inhibitory Concentration (MIC) ([1]; ATCC 14990, 18 h): 4.69 µg/mL
- Minimum Bactericidal Concentration (MBC) ([1]; ATCC 14990, 24 h): 75.00 µg/mL
- Minimum Inhibitory Concentration (MIC) ([2]; ATCC 35984, 18 h): 2.34 µg/mL
- Minimum Bactericidal Concentration (MBC) ([2]; ATCC 35984, 24 h): 4.69 µg/mL
- Minimum Bactericidal Concentration (MBC) [3]: 37.50 µg/mL
- Minimum Inhibitory Concentration (MIC) [3]: 2.34 µg/mL
- Minimum Bactericidal Concentration (MBC) (E. coli Eco53 (CI)): 75.00 µg/mL
- Minimum Inhibitory Concentration (MIC) (E. coli Eco53 (CI)): 18.75 µg/mL
- Minimum Bactericidal Concentration (MBC) (E. coli Eco61 (CI)): 18.75 µg/mL
- Minimum Inhibitory Concentration (MIC) (E. coli Eco61 (CI)): 9.38 µg/mL
- Minimum Bactericidal Concentration (MBC) (E. coli Eco75 (CI)): 75.00 µg/mL
- Minimum Inhibitory Concentration (MIC) (E. coli Eco75 (CI)): 18.75 µg/mL
- Minimum Bactericidal Concentration (MBC) (P. aeruginosa Pae2 (CI)): 150.00 µg/mL
- Minimum Inhibitory Concentration (MIC) (P. aeruginosa Pae2 (CI)): 150.00 µg/mL
- Minimum Bactericidal Concentration (MBC) (P. aeruginosa Pae61 (CI)): 150.00 µg/mL
- Minimum Inhibitory Concentration (MIC) (P. aeruginosa Pae61 (CI)): 37.50 µg/mL
- Minimum Bactericidal Concentration (MBC) (P. aeruginosa Pae82 (CI)): 300.00 µg/mL
- Minimum Inhibitory Concentration (MIC) (P. aeruginosa Pae82 (CI)): 75.00 µg/mL
- Minimum Bactericidal Concentration (MBC) (S. aureus Sau221 (CI)): 18.75 µg/mL
- Minimum Inhibitory Concentration (MIC) (S. aureus Sau221 (CI)): 9.38 µg/mL
- Minimum Bactericidal Concentration (MBC) (S. aureus Sau39 (CI)): 9.38 µg/mL
- Minimum Inhibitory Concentration (MIC) (S. aureus Sau39 (CI)): 2.34 µg/mL
- Minimum Bactericidal Concentration (MBC) (S. aureus Sau89 (CI)): 4.69 µg/mL
- Minimum Inhibitory Concentration (MIC) (S. aureus Sau89 (CI)): 4.69 µg/mL
- MBC range (bactericidal effect) against Staphylococci (Staphylococci): 4.69 to 150 µg/mL
- Hemolytic activity (red blood cells (RBC)): below 1%
